Experimental data: US20230391772A1, “METHODS AND COMPOSITIONS FOR TARGETED PROTEIN DEGRADATION” (Ranok Therapeutics (Hangzhou) Co. Ltd., priority 2020, published 2023)

Key:
HSP90a protein = molecular target: T1, HSP90a protein (Homo sapiens, UniProt P07900); test: HSP90α-binding fluorescent polarization (FP) assay, BODIPY-labeled RNK04010 probe; conditions: FP competition with RNK04010 (BODIPY-labeled), 5 nM, 300 min at 25° C.
T1 construct: purchased BPS Bioscience 50298
Procedure, shortened: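 Compounds (20 μM down to 5.2 nM, 2.5-fold steps) compete with a 5 nM fluorescent tracer for N-terminal HSP90a, measured by fluorescence polarization. With FITC-geldanamycin, plates sit 120 min at 25 °C. With BODIPY-RNK04010, they sit 300 min at 25 °C.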

[1] = tested on: NCI-H358 human non-small cell lung cancer; test: NCI-H358 CCK-8 proliferation assay; type: cell-based; conditions: NCI-H358 cells, 72 hr
Description: The following cancer cell lines were employed: BT-474 human breast carcinoma (ATCC, #HTB-20); MIA PaCa-2 human pancreatic carcinoma [2 copies KRAS(G12C)](ATCC, #CRL-1420); NCI-H23 human non-small cell lung cancer [1 copy KRAS(G12C)](ATCC, #CRL-5800); NCI-H358 human non-small cell lung cancer [1 copy KRAS(G12C)](ATCC, #CRL-5807); LU65A human lung carcinoma (Pharmaron, Beijing, China). Cell lines were cultured essentially according to ATCC and Pharmaron recommendations.
Cancer Cell Line Proliferation (CCK-8) Assays
3-fold serial dilutions of each test compound were prepared ranging from 20 μM to 1.02 nM.
% Inhibition=100−(D−B)/(S−B)*100%. • S: Absorbance of cells treated with DMSO • D: Absorbance of compound-treated cells • B: Absorbance of medium with DMSO without cells

[2] = tested on: MIA PaCa-2 human pancreatic carcinoma; test: MIA PaCa-2 CCK-8 proliferation assay; type: cell-based; conditions: Homo sapiens, MIA PaCa-2, 72 h, MIA PaCa-2 cells
Procedure, shortened: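 Percent inhibition derived from CCK-8 optical signal, normalised between DMSO-only cells (0%) and cell-free medium containing DMSO as background. Cells: MIA PaCa-2 carrying 2 KRAS(G12C) copies; NCI-H358, NCI-H23 carrying 1 copy apiece. Concentrations spanned 1.02 nM–20 μM in threefold increments.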

KRAS(G12C) = KRAS(G12C) (Homo sapiens, UniProt P01116, G12C); test: KRAS(G12C)/SOS1 homogeneous time-resolved fluorescence (HTRF) assay; set-up: purchased Cisbio 63ADK000CB16PEG; conditions: absence of GTP, 4° C. for 3 hr, read-out: KRAS (G12C) binding
Procedure, shortened: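 Three-hour incubation at 4 °C of 3-fold compound dilutions (lowest 1.02 nM) with KRAS(G12C), SOS1 and detection reagents, GTP absent. Disruption of the KRAS(G12C)/SOS1 complex detected by time-resolved fluorescence.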

Sequence of KRAS(G12C) (P01116 1-188 isoform P01116-2 G12C): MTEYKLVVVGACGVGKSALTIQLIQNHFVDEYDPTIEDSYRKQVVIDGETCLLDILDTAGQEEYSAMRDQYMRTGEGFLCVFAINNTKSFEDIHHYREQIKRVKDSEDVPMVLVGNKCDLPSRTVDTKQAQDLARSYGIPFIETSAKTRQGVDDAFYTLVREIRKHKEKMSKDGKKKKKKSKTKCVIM

SMILES | IC50 (HSP90a protein) [nM] | EC50 [1] [nM] | EC50 [2] [nM] | IC50 (KRAS(G12C)) [nM]
C=CC(=O)N1CCN(c2nc(NCCC(=O)NCCOCCOCCOc3ccc(-n4c(O)nnc4-c4cc(CC)c(O)cc4O)cc3)nc3c2CCN(c2cc(O)cc4ccccc24)C3)CC1 [Compound 5, 3-((4-(4-acryloylpiperazin-1-yl)-7-(3-hydroxynaphthalen-1-yl)-5,6,7,8-tetrahydropyrido[3,4-d]pyrimidin-2-yl)amino)-N-(2-(2-(2-(4-(3-(5-ethyl-2,4-dihydroxyphenyl)-5-hydroxy-4H-1,2,4-triazol-4-yl)phenoxy)ethoxy)ethoxy)ethyl)propanamide, trifluoroacetic acid] | > 1000 | > 1000 |  | 
C=CC(=O)N1CCN(c2nc(NCCC(=O)N3CCC(CN4CCN(Cc5ccc(-n6c(C(=O)NCC(F)(F)F)nnc6-c6cc(C)c(O)cc6O)cc5)CC4)CC3)nc3c2CCN(c2cccc4ccccc24)C3)C[C@H]1CC#N [Compound 77, (R)-4-(4-((4-((1-(3-((4-(4-acryloyl-3-(cyanomethyl)piperazin-1-yl)-7-(naphthalen-1-yl)-5,6,7,8-tetrahydropyrido[3,4-d]pyrimidin-2-yl)amino)propanoyl)piperidin-4-yl)methyl)piperazin-1-yl)methyl)phenyl)-5-(2,4-dihydroxy-5-methylphenyl)-N-(2,2,2-trifluoroethyl)-4H-1,2,4-triazole-3-carboxamide, trifluoroacetic acid] | 100 to 1000 | 100 to 1000 |  | 
C=C(F)C(=O)N1CCN(c2nc(N3CCC(CN4CCN(Cc5ccc(-n6c(O)nnc6-c6cc(C(C)C)c(O)cc6O)cc5)CC4)CC3)nc3c2CCN(c2cccc4cccc(Cl)c24)C3)C[C@@H]1CC#N [Compound 129, (S)-2-(4-(7-(8-chloronaphthalen-1-yl)-2-(4-((4-(4-(3-(2,4-dihydroxy-5-isopropylphenyl)-5-hydroxy-4H-1,2,4-triazol-4-yl)benzyl)piperazin-1-yl)methyl)piperidin-1-yl)-5,6,7,8-tetrahydropyrido[3,4-d]pyrimidin-4-yl)-1-(2-fluoroacryloyl)piperazin-2-yl)acetonitrile] | < 100 | 100 to 1000 |  | 
C=CC(=O)N1CCN(c2nc(NCCC(=O)N3CCC(CN4CCC(Cc5ccc(-n6c(O)nnc6-c6cc(C(C)C)c(O)cc6O)cc5)CC4)CC3)nc3c2CCN(c2cc(O)cc4ccccc24)C3)CC1 [Compound 12, 1-(4-(2-((3-(4-((4-(4-(3-(2,4-dihydroxy-5-isopropylphenyl)-5-hydroxy-4H-1,2,4-triazol-4-yl)benzyl)piperidin-1-yl)methyl)piperidin-1-yl)-3-oxopropyl)amino)-7-(3-hydroxynaphthalen-1-yl)-5,6,7,8-tetrahydropyrido[3,4-d]pyrimidin-4-yl)piperazin-1-yl)prop-2-en-1-one, trifluoroacetic acid] | 100 to 1000 | > 1000 |  | 
C=CC(=O)N1CCN(c2nc(OC[C@@H]3CCN3C(=O)C3CCN(Cc4ccc(-n5c(O)nnc5-c5cc(C(C)C)c(O)cc5O)cc4)CC3)nc3c2CCN(c2cccc4cccc(Cl)c24)C3)C[C@@H]1CC#N [Compound 189, 2-((S)-1-acryloyl-4-(7-(8-chloronaphthalen-1-yl)-2-(((S)-1-(1-(4-(3-(2,4-dihydroxy-5-isopropylphenyl)-5-hydroxy-4H-1,2,4-triazol-4-yl)benzyl)piperidine-4-carbonyl)azetidin-2-yl)methoxy)-5,6,7,8-tetrahydropyrido[3,4-d]pyrimidin-4-yl)piperazin-2-yl)acetonitrile, trifluoroacetic acid] | < 100 |  | > 1000 | > 1000
C=CC(=O)N1CCN(c2nc(OC[C@@H]3CC[C@H](C(=O)N4CCN(C(=O)C5CCN(Cc6ccc(-n7c(C(=O)NCC(F)(F)F)nnc7-c7cc(C)c(O)cc7O)cc6)CC5)CC4)N3C)nc3c2CCN(c2cccc4cccc(Cl)c24)C3)C[C@@H]1CC#N [Compound 332, 4-{4-[(4-{4-[(2R,5S)-5-({[7-(8-chloronaphthalen-1-yl)-4-[(3S)-3-(cyanomethyl)-4-(prop-2-enoyl)piperazin-1-yl]-5H,6H,8H-pyrido[3,4-d]pyrimidin-2-yl]oxy}methyl)-1-methylpyrrolidine-2-carbonyl]piperazine-1-carbonyl}piperidin-1-yl)methyl]phenyl}-5-(2,4-dihydroxy-5-methylphenyl)-N-(2,2,2-trifluoroethyl)-1,2,4-triazole-3-carboxamide] | < 100 |  | < 100 | < 100

Results, then the molecule that gave them:

IC50 (HSP90a protein) [nM] | EC50 [1] [nM] | EC50 [2] [nM] | IC50 (KRAS(G12C)) [nM] | SMILES
100 to 1000 | > 1000 |  |  | C=CC(=O)N1CCN(c2nc(NCCC(=O)NCc3ccc(-n4c(O)nnc4-c4cc(CC)c(O)cc4O)cc3F)nc3c2CCN(c2cc(O)cc4ccccc24)C3)CC1 [Compound 41, 3-((4-(4-acryloylpiperazin-1-yl)-7-(3-hydroxynaphthalen-1-yl)-5,6,7,8-tetrahydropyrido[3,4-d]pyrimidin-2-yl)amino)-N-(4-(3-(5-ethyl-2,4-dihydroxyphenyl)-5-hydroxy-4H-1,2,4-triazol-4-yl)-2-fluorobenzyl)propanamide, trifluoroacetic acid]
100 to 1000 | > 1000 |  |  | C=CC(=O)N1CCN(c2nc(NCCC(=O)NCc3ccc(-n4c(O)nnc4-c4cc(C(C)C)c(O)cc4O)cc3C(F)(F)F)nc3c2CCN(c2cccc4ccccc24)C3)C[C@H]1CC#N [Compound 82, (R)-3-((4-(4-acryloyl-3-(cyanomethyl)piperazin-1-yl)-7-(naphthalen-1-yl)-5,6,7,8-tetrahydropyrido[3,4-d]pyrimidin-2-yl)amino)-N-(4-(3-(2,4-dihydroxy-5-isopropylphenyl)-5-hydroxy-4H-1,2,4-triazol-4-yl)-2-(trifluoromethyl)benzyl)propanamide, trifluoroacetic acid]
< 100 | > 1000 |  |  | C=CC(=O)N1CCN(c2nc(NCCC(=O)NCC3CCN(C(=O)C4CCN(Cc5ccc(-n6c(O)nnc6-c6cc(CC)c(O)cc6O)cc5)CC4)CC3)nc3c2CCN(c2cccc4ccccc24)C3)C[C@H]1CC#N [Compound 103, (R)-3-((4-(4-acryloyl-3-(cyanomethyl)piperazin-1-yl)-7-(naphthalen-1-yl)-5,6,7,8-tetrahydropyrido[3,4-d]pyrimidin-2-yl)amino)-N-((1-(1-(4-(3-(5-ethyl-2,4-dihydroxyphenyl)-5-hydroxy-4H-1,2,4-triazol-4-yl)benzyl)piperidine-4-carbonyl)piperidin-4-yl)methyl)propanamide, trifluoroacetic acid]
> 1000 | > 1000 |  |  | CCC(=O)N1CCN(c2nc(NCCC(=O)NCc3ccc(-n4c(O)nnc4-c4cc(CC)c(O)cc4O)cc3C(F)(F)F)nc3c2CCN(c2cc(O)cc4ccccc24)C3)CC1 [Compound 45, N-(4-(3-(5-ethyl-2,4-dihydroxyphenyl)-5-hydroxy-4H-1,2,4-triazol-4-yl)-2-(trifluoromethyl)benzyl)-3-((7-(3-hydroxynaphthalen-1-yl)-4-(4-propionylpiperazin-1-yl)-5,6,7,8-tetrahydropyrido[3,4-d]pyrimidin-2-yl)amino)propanamide, trifluoroacetic acid]
> 1000 | > 1000 |  |  | CCC(=O)N1CCN(c2nc(NCCC(=O)NCc3ccc(-n4c(O)nnc4-c4ccc(O)cc4O)cc3)nc3c2CCN(c2cc(O)cc4ccccc24)C3)CC1 [Compound 31, N-(4-(3-(2,4-dihydroxyphenyl)-5-hydroxy-4H-1,2,4-triazol-4-yl)benzyl)-3-((7-(3-hydroxynaphthalen-1-yl)-4-(4-propionylpiperazin-1-yl)-5,6,7,8-tetrahydropyrido[3,4-d]pyrimidin-2-yl)amino)propanamide, trifluoroacetic acid]
